In the supplement of paper PMC10721915:

Assays:
Test in all cases: relative cell growth vs untreated control (GI, NCI-DTP normalisation with time-zero) (fraction of control growth); higher = more growth / less inhibition
Settings in all cases: concentration of partner 0 M, treatment time: 120 h
[1] = system: A204
Description: (§1)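 Cancer cell lines in 96-well plates were treated 48 h after seeding with M4076 (ATM inhibitor) and berzosertib (ATR inhibitor), alone or mixed, in 4-fold dilutions for 120 h. Protein was read by sulforhodamine B staining, background-subtracted and normalised NCI-DTP style to untreated control growth. Rows with one concentration equal to 0 are monotherapy.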

[2] = system: HEPG2
Description: as §1

[3] = system: HT1080
Description: as §1

[4] = system: HT29
Description: as §1

[5] = system: IGROV1
Description: as §1

[6] = system: MDAMB435
Description: as §1

[7] = system: MV411
Description: as §1

[8] = system: RAMOS
Description: as §1

[9] = system: SW620
Description: as §1

[10] = system: U2OS
Description: as §1

CNCc1ccc(-c2cc(-c3nc(-c4ccc(S(=O)(=O)C(C)C)cc4)cnc3N)on2)cc1 [berzosertib] + COc1cc2ncc3c(c2cc1-c1cn(C)nc1C)n(-c1c(F)cncc1OC)c(=O)n3C [M4076]
relative cell growth
Settings	[1]	[2]	[3]	[4]	[5]	[6]	[7]	[8]	[9]	[10]
concentration of first compound 0.0195 µM	1.15	1.09	2.08	1.22	1.15	1.07	1.25	1.1	1.1	1.07
concentration of first compound 0.0781 µM	1.06	0.33	2.13	0.613	1.01	1.06	1.32	1.11	1.07	0.977
concentration of first compound 0.2 µM	0.623	0.0562	0.626	0.113	0.468	0.893	0.778	1.16	0.795	0.906
concentration of first compound 0.313 µM	0.583	0.0114	0.0933	-0.0285	0.129	0.656	0.429	1.05	0.494	0.9
concentration of first compound 1.25 µM	-0.0148	-0.033	-0.162	-0.0598	-0.0355	-0.0138	-0.0241	0.322	0.087	0.0428
concentration of first compound 5 µM	-0.0897	-0.0501	-0.228	-0.0555	-0.0657	-0.0273	-0.0294	0.103	-0.01	-0.0411
